Experimental data as given in ChEMBL document CHEMBL1132772, “NMR line-broadening and transferred NOESY as a medicinal chemistry tool for studying inhibitors of the hepatitis C virus NS3 protease domain” (Bioorg Med Chem Lett, 2000).
Starred links: 1 amine or outer side, 2 acyl side, 3 side chain; linkers in the order of their positions; H or OH if unused. Non-standard residues stand in square brackets, D forms with d. Residues, ends and D or L forms follow the SMILES beside them. *: point of attachment. CH2(1-naphthyl) = c1ccc2c(C*)cccc2c1; Hyp = O=C(O)[C@@H]1C[C@@H](O)CN1; Suc = O=C(CCC(=O)[*:2])[*:1]; Nva = CCC[C@H](N)C(=O)O; Ac3c = NC1(C(=O)O)CC1

Molecular target: NS3 (Hepatitis C virus, UniProt A3EZJ3)
Test: Inhibitory concentration required against NS3 Protease of Hepatitis C Virus
Parameters: species or system Hepacivirus hominis

Chain of NS3 (A3EZJ3 whole entry): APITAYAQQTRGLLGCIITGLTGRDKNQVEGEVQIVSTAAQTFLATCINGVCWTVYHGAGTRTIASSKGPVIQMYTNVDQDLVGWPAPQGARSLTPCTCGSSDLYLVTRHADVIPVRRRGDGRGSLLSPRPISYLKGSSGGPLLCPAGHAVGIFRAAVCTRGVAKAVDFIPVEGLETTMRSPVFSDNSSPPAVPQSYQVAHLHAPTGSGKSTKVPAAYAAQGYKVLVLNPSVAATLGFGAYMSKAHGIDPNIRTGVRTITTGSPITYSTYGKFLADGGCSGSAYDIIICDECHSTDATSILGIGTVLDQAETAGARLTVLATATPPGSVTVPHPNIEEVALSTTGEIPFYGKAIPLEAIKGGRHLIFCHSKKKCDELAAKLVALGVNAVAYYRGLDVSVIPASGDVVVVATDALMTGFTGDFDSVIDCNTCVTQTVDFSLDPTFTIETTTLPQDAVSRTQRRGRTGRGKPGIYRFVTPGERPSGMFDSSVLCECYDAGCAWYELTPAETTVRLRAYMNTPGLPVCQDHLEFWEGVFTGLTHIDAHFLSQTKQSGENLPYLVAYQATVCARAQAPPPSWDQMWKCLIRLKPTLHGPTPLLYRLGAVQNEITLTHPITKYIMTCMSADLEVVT

Structure (SMILES) | IC50 [µM]
CC[C@H](C)[C@H](NC(=O)CCC(=O)O)C(=O)N[C@H](C(=O)N1C[C@H](OCc2cccc3ccccc23)C[C@H]1C(=O)NC1(C(=O)O)CC1)C(C)C (Suc-IV[Hyp](CH2(1-naphthyl))[Ac3c]-OH) | 5.5
CCC[C@H](NC(=O)[C@@H]1C[C@@H](OCc2cccc3ccccc23)CN1C(=O)[C@@H](NC(=O)[C@@H](NC(=O)CCC(=O)O)[C@@H](C)CC)C(C)C)C(=O)O (Suc-IV[Hyp](CH2(1-naphthyl))[Nva]-OH) | 22
